Broadly, the Cmax is the peak of the concentration-time curve.

The values that follow come from patent EP3275434A1, “AN EXTENDED RELEASE ORAL DOSAGE FORM” (SANDOZ AG, priority 2016, dated 2018).

Data set [1] can be described thus: blood plasma concentration of veliparib against time, immediate release 400 mg twice a day. Format: in vivo. As to conditions: 10 x 40 mg twice a day, daily dose 800 mg. From the text: The term peak plasma concentration is Cmax in blood plasma observed after administration. The term trough plasma concentration is Cmin in blood plasma observed after administration and just prior to the administration of a subsequent dose in a given dosage regimen. The veliparib plasma concentration can be determined according to the approach described in Mostafa et al., Cancer Chemother Pharmacol (2014) 74: 583-591. Pharmacokinetic terms have the typical meaning as recognized in the art and in case of doubt are to be interpreted according to the European Pharmacopoeia Version 8.8.
The present inventors have realized that the In-vivo plasma concentration profile of veliparib when administered as immediate release dosage forms at 400 mg BID, can be such that the blood plasma fluctuations are quite high. […] Thus, undesireably high peak concentrations are obtained in order to keep the trough concentration above a therapeutic threshold. In contrast, the extended release dosage form of the present invention enables the provision of therapeutically effective trough concentrations at all times without attaining such a high peak concentration. Moreover, when the extended release dosage form of the present invention is administered twice daily, even an overall dose reduction can be obtained while at the same time keeping the through concentration above the therapeutic threshold.
In this experiment 10 tablets containing 40 mg veliparib each prepared in accordance with Comparative example 1 are administered twice a day, 12h apart, to meet a daily dose of 800 mg. A plot displaying the pharmacokinetic behaviour of veliparib is obtained by plotting the blood plasma concentration of veliparib against time (Figure 1). […] The Cmax/Cmin ratio for veliparib is almost 7.

The conditions of data set [2]: cited from earlier work.

Molecules are shown by their SMILES.

Consider `C[C@]1(c2nc3c(C(N)=O)cccc3[nH]2)CCCN1` [veliparib, 2-((R)-2-Methylpyrrolidin-2-yl)-1H-benzimidazole-4-carboxamide], for which, in data set [1], the Cmax/Cmin ratio entry is recorded as “about 7” and the Cmin entry is listed as “around 0.5 µg/ml”. For the same compound, in data set [1] (plasma, po, 400 mg), the Cmax was ~3500 ng/mL. Also, in data set [2] (immediate release tablet at 2 x 400 mg per day), the side effects reported result was “anemia, fatigue, nausea, pain and cough”. For the same compound, the elimination half-life result in data set [2] (in vivo) is “about 6 hours”.
